Our source for the IC50 values is patent US7928139B2 (Amgen Inc., priority 2006, dated 2011).

In this assay the target is HIF PHD2 (Homo sapiens, UniProt Q9GZT9). Kind of assay: PHD2 inhibition assay (TR-FRET, VCB-Eu detection of hydroxylated P564-HIF1α peptide). The following applies: 2 nM PHD2, 100 nM P564-HIF1α peptide, 0.25 μM 2-oxoglutarate, 100 μM FeCl2, 2 mM ascorbic acid. It is filed as biochemical. The essentials:
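Human PHD2 (2 nM final) preincubated 1 h at room temperature with compound and 100 μM FeCl2 in pH 6 MES buffer, 5% DMSO final. Reaction with 100 nM biotinylated P564-HIF1α peptide, 2 mM ascorbate and 0.25 μM 2-oxoglutarate for 1 h, stopped with succinate. Hydroxylation read by TR-FRET (VCB-Eu/streptavidin-APC, 655/615 nm); IC50 from 4-parameter fit of percent of control.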
A general note: Time-resolved FRET reads energy transfer from a long-lived donor to a nearby acceptor.

As usually defined, the pIC50 is −log10 of the IC50, conventionally taken in molar units. High values mean a low IC50, low ones a high IC50.

pIC50: −log10 of the molar value.

HIF PHD2, sequence (Q9GZT9 whole entry): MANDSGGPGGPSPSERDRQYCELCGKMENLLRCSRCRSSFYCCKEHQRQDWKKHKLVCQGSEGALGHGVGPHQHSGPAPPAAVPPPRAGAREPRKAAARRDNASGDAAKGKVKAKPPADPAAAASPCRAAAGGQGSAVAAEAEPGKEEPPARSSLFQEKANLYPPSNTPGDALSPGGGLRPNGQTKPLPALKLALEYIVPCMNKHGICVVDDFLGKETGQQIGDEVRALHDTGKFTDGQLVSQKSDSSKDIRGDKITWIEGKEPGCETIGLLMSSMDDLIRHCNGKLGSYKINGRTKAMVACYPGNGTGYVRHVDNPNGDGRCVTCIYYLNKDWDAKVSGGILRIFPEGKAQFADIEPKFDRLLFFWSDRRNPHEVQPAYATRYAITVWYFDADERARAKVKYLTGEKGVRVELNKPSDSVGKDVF

As for `CC1(C)C(=O)C(C(=O)NCC(=O)O)=C(O)c2ccc(C(=O)O)cc21` [Example 106, 6-((Carboxymethyl)carbamoyl)-7-hydroxy-8,8-dimethyl-5-oxo-5,8-dihydronaphthalene-2-carboxylic acid], the negative-log IC50 (pIC50) was more than 7.00.

`CC1(C)C(=O)C(C(=O)NCC(=O)O)=C(O)c2ccc(NCCN3CCOCC3)cc21` [Example 107, 2-(2-Hydroxy-1,1-dimethyl-7-(2-morpholinoethylamino)-4-oxo-1,4-dihydronaphthalene-3-carboxamido)acetic acid]: the pIC50 was 6.30 to 7.00.

On to `CC1(C)C(=O)C(C(=O)NCC(=O)O)=C(O)c2ccc(/C=C/c3ccccc3)cc21` [Example 108, (E)-2-(2-Hydroxy-1,1-dimethyl-4-oxo-7-styryl-1,4-dihydronaphthalene-3-carboxamido)acetic acid], for which the pIC50 is more than 7.00.

In the case of `CC1(C)C(=O)C(C(=O)NCC(=O)O)=C(O)c2ccc(CCc3ccccc3)cc21` [Example 109, 2-(2-Hydroxy-1,1-dimethyl-4-oxo-7-phenethyl-1,4-dihydronaphthalene-3-carboxamido)acetic acid], the negative-log IC50 (pIC50) was more than 7.00.

For `CC1(C)C(=O)C(C(=O)NCC(=O)O)=C(O)c2ccc(C#Cc3ccccc3)cc21` [Example 110, 2-(2-Hydroxy-1,1-dimethyl-4-oxo-7-(2-phenylethynyl)-1,4-dihydronaphthalene-3-carboxamido)acetic acid], the pIC50 is 6.30 to 7.00.

On to `O=C(O)CNC(=O)C1=C(O)c2cccc(Cl)c2C2(CCOCC2)C1=O` [Example 111, N-((8-Chloro-2-hydroxy-4-oxo-2′,3′,5′,6′-tetrahydro-4H-spiro[naphthalene-1,4′-pyran]-3-yl)carbonyl)glycine], for which the pIC50 is more than 7.00.

The compound `O=C(O)CNC(=O)C1=C(O)c2c(Cl)cccc2C2(CCOCC2)C1=O` [Example 112, N-((5-Chloro-2-hydroxy-4-oxo-2′,3′,5′,6′-tetrahydro-4H-spiro[naphthalene-1,4′-pyran]-3-yl)carbonyl)glycine] showed a negative-log IC50 (pIC50) of more than 7.00.

In turn, `O=C(O)CNC(=O)C1=C(O)c2ccc(F)c(F)c2C2(CCOCC2)C1=O` [Example 113, N-((7,8-Difluoro-2-hydroxy-4-oxo-2′,3′,5′,6′-tetrahydro-4H-spiro[naphthalene-1,4′-pyran]-3-yl)carbonyl)glycine] gave a pIC50 of more than 7.00.

With `CCCCCCCCc1ccc2c(c1)C(C)(C)C(=O)C(C(=O)NCC(=O)O)=C2O` [Example 115, 2-(2-hydroxy-1,1-dimethyl-7-octyl-4-oxo-1,4-dihydronaphthalene-3-carboxamido) acetic acid], the negative logarithm of the IC50 (pIC50) is 5.00 to 6.00.

In turn, `COCC#Cc1ccc2c(c1)C(C)(C)C(=O)C(C(=O)NCC(=O)O)=C2O` [Example 116, 2-(2-hydroxy-7-(3-methoxyprop-1-ynyl)-1,1-dimethyl-4-oxo-1,4-dihydronaphthalene-3-carboxamido) acetic acid] had a pIC50 of more than 7.00.

As to `CC1(C)C(=O)C(C(=O)NCC(=O)O)=C(O)c2ccc(C#Cc3cccnc3)cc21` [Example 117, 2-(2-hydroxy-1,1-dimethyl-4-oxo-7-(2-(pyridin-3-yl)ethynyl)-1,4-dihydronaphthalene-3-carboxamido) acetic acid], the negative-log IC50 (pIC50) was more than 7.00.

As to `CC1(C)C(=O)C(C(=O)CCC(=O)O)=C(O)c2cc(Cl)c(Cl)cc21` [Example 118, 4-(6,7-Dichloro-3-hydroxy-4,4-dimethyl-1-oxo-1,4-dihydro-2-naphthalenyl)-4-oxobutanoic acid], the pIC50 is 6.30 to 7.00.

Consider `O=C(O)CCC(=O)C1=C(O)c2cc(Cl)ccc2C2(CCOCC2)C1=O` [Example 119, 4-(6-Chloro-2-hydroxy-4-oxo-2′,3′,5′,6′-tetrahydro-4H-spiro[naphthalene-1,4′-pyran]-3-yl)-4-oxobutanoic acid], for which the pIC50 is more than 7.00.

For `CC(CC(=O)O)C(=O)C1=C(O)c2cc(Cl)ccc2C2(CCOCC2)C1=O` (stereo not shown) [Example 121, 4-(6-Chloro-2-hydroxy-4-oxo-2′,3′,5′,6′-tetrahydro-4H-spiro[naphthalene-1,4′-pyran]-3-yl)-3-methyl-4-oxobutanoic acid], the pIC50 is 5.00 to 6.00.

The compound `CC1(C#N)C(=O)C(C(=O)CCC(=O)O)=C(O)c2cc(Cl)ccc21` (stereo not shown) [Example 123, 4-(7-chloro-4-cyano-3-hydroxy-4-methyl-1-oxo-1,4-dihydro-2-naphthalenyl)-4-oxobutanoic acid] gave a negative-log IC50 (pIC50) of 5.00 to 6.00.

As to `CC1(C)C(=O)C(C(=O)CCC(=O)O)=C(O)c2ccc(F)c(F)c21` [Example 126, 4-(5,6-difluoro-1-hydroxy-4,4-dimethyl-3-oxo-3,4-dihydronaphthalen-2-yl)-4-oxobutanoic acid], the pIC50 is 6.30 to 7.00.

`CC1(C)C(=O)C(C(=O)CCC(=O)O)=C(O)c2ccc(Cl)cc21` [Example 127, 4-(6-chloro-1-hydroxy-4,4-dimethyl-3-oxo-3,4-dihydronaphthalen-2-yl)-4-oxobutanoic acid]: the negative-log IC50 (pIC50) is 6.30 to 7.00.

Regarding `O=C(O)CCC(=O)C1=C(O)c2ccc(Cl)cc2C2(CCOCC2)C1=O` [Example 128, 4-(7-chloro-2-hydroxy-4-oxo-2′,3′,5′,6′-tetrahydro-4H-spiro[naphthalene-1,4′-pyran]-3-yl)-4-oxobutanoic acid], the pIC50 was more than 7.00.

`CC1(C#N)C(=O)C(C(=O)NCC(=O)O)=C(O)c2ccc(Cl)cc21` (stereo not shown) [Example 129, 2-(7-chloro-1-cyano-4-hydroxy-1-methyl-2-oxo-1,2-dihydronaphthalene-3-carboxamido) acetic acid]: the pIC50 was more than 7.00.

The compound `CC1(C#N)C(=O)C(C(=O)NCC(=O)O)=C(O)c2ccc(F)cc21` (stereo not shown) [Example 130, 2-(1-cyano-7-fluoro-4-hydroxy-1-methyl-2-oxo-1,2-dihydronaphthalene-3-carboxamido) acetic acid] had a pIC50 of more than 7.00.

The compound `CC1(C#N)C(=O)C(C(=O)NCC(=O)O)=C(O)c2cc(F)ccc21` (stereo not shown) [Example 131, 2-(1-cyano-6-fluoro-4-hydroxy-1-methyl-2-oxo-1,2-dihydronaphthalene-3-carboxamido) acetic acid] showed a negative-log IC50 (pIC50) of more than 7.00.

`CC1(C#N)C(=O)C(C(=O)NCC(=O)O)=C(O)c2ccc(Br)cc21` (stereo not shown) [Example 132, 2-(7-bromo-1-cyano-4-hydroxy-1-methyl-2-oxo-1,2-dihydronaphthalene-3-carboxamido) acetic acid] showed a pIC50 of more than 7.00.

`CC1(C#N)C(=O)C(C(=O)NCC(=O)O)=C(O)c2cc(F)c(F)cc21` (stereo not shown) [Example 133, 2-(1-cyano-6,7-difluoro-4-hydroxy-1-methyl-2-oxo-1,2-dihydronaphthalene-3-carboxamido) acetic acid] had a pIC50 of more than 7.00.

With “(R)-2-(7-bromo-1- cyano-4-hydroxy-1- methyl-2-oxo-1,2- dihydronaphthalene- 3-carboxamido) acetic acid or (S)-2-(7-bromo-1- cyano-4-hydroxy-1- methyl-2-oxo-1,2- dihydronaphthalene- 3-carboxamido) acetic acid [Example 134]”, the pIC50 was more than 7.00.

“(R)-2-(7-chloro-1- cyano-4-hydroxy-1- methyl-2-oxo-1,2- dihydronaphthalene- 3-carboxamido) acetic acid or (S)-2-(7-chloro-1- cyano-4-hydroxy-1- methyl-2-oxo-1,2- dihydronaphthalene- 3-carboxamido) acetic acid [Example 136]” had a pIC50 of more than 7.00.
